Converted amounts (≈) assume the structure as drawn. “Also recorded” adds a separate entry of the source. Where two headings read alike, the source gives them in different places.
Columns and labels:
[1] = system: Aeromonas hydrophila (嗜水气单胞菌); assay: MIC/MBC by twofold dilution in TSB; format: cell-based, Aeromonas hydrophila AH08; details: 30 °C, 24 h; for MIC: TSB
[2] = system: Aeromonas hydrophila (嗜水气单胞菌); assay: Growth curve of A. hydrophila; format: cell-based, Aeromonas hydrophila AH08
[3] = system: Aeromonas hydrophila biofilm (嗜水气单胞菌生物膜); assay: Biofilm inhibition test (crystal violet); format: cell-based, Aeromonas hydrophila AH08; details: for inhibition at 128 µg/mL: Aeromonas hydrophila, 128 μg/ml, 30 °C, read-out: inhibition rate of biofilm
[4] = system: AI-2 of Aeromonas hydrophila (AI-2); assay: AI-2 bioluminescence assay with V. harveyi BB170 reporter; format: cell-based, Aeromonas hydrophila AH08; details: compared with control (no EGCG); 16-256 μg/mL
[5] = system: virulence factor and QS genes of Aeromonas hydrophila (嗜水气单胞菌毒力因子及QS基因); assay: qRT-PCR of quorum sensing and virulence genes; format: cell-based, Aeromonas hydrophila AH08; details: normalised to rpob
[6] = system: Aeromonas hydrophila (嗜水气单胞菌); assay: Protection of zebrafish infected with A. hydrophila (survival); format: in vivo, Aeromonas hydrophila AH08; zebrafish; details: for time of death of the first zebrafish: injected after intraperitoneal infection; for survival rate: model group 0
[7] = system: Aeromonas hydrophila (嗜水气单胞菌); format: in vivo, Aeromonas hydrophila AH08; zebrafish; details: for reduction of bacterial adhesion CFU: compared with model group
[8] = system: Aeromonas hydrophila (嗜水气单胞菌); assay: Histopathology of infected zebrafish (gill, muscle, liver; H&E); format: in vivo, Aeromonas hydrophila AH08; zebrafish
[9] = system: Aeromonas hydrophila (嗜水气单胞菌); details: swarming and swimming, 64-256 μg/mL
[10] = system: Aeromonas hydrophila (嗜水气单胞菌); assay: microbe, parasite or virus in culture; details: 18 h
[11] = system: pro-inflammatory cytokine genes IL-1β, IL-8, IL-6, TNF-α (促炎细胞因子基因); assay: Pro-inflammatory cytokine gene expression in zebrafish intestine (qRT-PCR); details: 6 h after infection
[12] = read-out: inhibition rate of swarming
[13] = read-out: inhibition rate of swimming

O=C(O[C@@H]1Cc2c(O)cc(O)cc2O[C@@H]1c1cc(O)c(O)c(O)c1)c1cc(O)c(O)c(O)c1 [EGCG, 表没食子儿茶素-3-没食子酸酯]
MBC ([1]; Aeromonas hydrophila, TSB agar): 4100 µg/mL (≈ 8940 µM)
MIC ([1]; Aeromonas hydrophila, read-out: MIC): 1020 µg/mL (≈ 2230 µM)
MIC [1]: 1024 µg/mL (≈ 2230 µM)
inhibition of growth after 12 h (growth curve) ([2]; 0-256 μg/mL, 30 °C, after 12 h): 没有明显的抑制作用
effect on lag phase (growth curve) ([2]; 0-256 μg/mL, 30 °C, od600nm): 增加了细菌的滞后期; also recorded: 延缓了嗜水气单胞菌进入对数生长期的时间
bactericidal effect ([2]; 64-256 μg/ml, compared with control without EGCG): 不直接产生杀菌作用
effect on growth after 24 h ([2]; sub-MIC, after 24 h): 没有明显影响
inhibition of biofilm formation (in words) ([3]; 16-256 μg/mL): 显著抑制
concentration dependence of biofilm inhibition ([3]; 24 h): 呈浓度依赖性
inhibition at 128 µg/mL ([3]; 24 h): 38.3%
inhibition at 128 µg/mL ([3]; 48 h): 26.6%
AI-2 secreted by A. hydrophila [4]: 明显减少,并呈浓度依赖性
expression of LuxR ([5]; AI-1 related gene): 不影响
expression of ahyI ([5]; AI-1 related gene): 显著抑制
expression of ahyR ([5]; AI-1 related gene): 显著抑制
expression of LuxS ([5]; AI-2 synthase): 显著抑制
expression of QseB ([5]; AI-3 related gene): 显著抑制
expression of ahyB ([5]; elastase gene): 显著下调
expression of flgL ([5]; flagellar gene): 显著下调
expression of ahh1 ([5]; hemolysin gene): 显著下调
expression of hly ([5]; hemolysin gene): 显著下调
time of death of the first zebrafish ([6]; 50 mg/kg): 18 h
time of death of the first zebrafish ([6]; 100 mg/kg): 48 h
survival rate ([6]; high dose group (100 mg/kg), 48 h after infection): 88.9%
survival rate (in words) ([6]; low dose group (10 mg/kg), 48 h after infection, compared with model group): 与模型组的生存率相同
survival rate ([6]; medium dose group (50 mg/kg), 48 h after infection): 88.9%
reduction of bacterial adhesion CFU ([7]; 10 mg/kg): 21.22%
reduction of bacterial adhesion CFU ([7]; 50 mg/kg): 33.47%
reduction of bacterial adhesion CFU ([7]; 100 mg/kg): 38.00%
adhesion of A. hydrophila to zebrafish (in words) ([7]; after EGCG treatment): 显著降低
bacterial load of zebrafish (in words) ([7]; after EGCG treatment): 显著降低
protection of tissues of infected zebrafish ([8]; dose-dependent): 显著的保护作用
pathological damage caused by A. hydrophila ([8]; liver, muscle and gill of infected zebrafish): 明显改善
inflammatory cell infiltration ([8]; zebrafish liver, muscle and gill): 显著减少
inhibition of motility (in words) [9]: 显著抑制嗜水气单胞菌的运动性,且呈浓度依赖性
inhibition at 128 µg/mL [10, 12]: 29.7%
inhibition at 256 µg/mL [10, 12]: 33%
inhibition at 64 µg/mL [10, 13]: 16%
inhibition at 128 µg/mL [10, 13]: 28.3%
inhibition at 256 µg/mL [10, 13]: 66%
expression of IL-1β [11]: 显著抑制
expression of IL-6 [11]: 显著抑制
expression of IL-8 [11]: 显著抑制
expression of TNF-α [11]: 显著抑制
